In PubChem BioAssay (NCI) one finds TGI and GI50 data, which are given here for 20 compounds.

Values joined by “and” are separate entries in the source; they are usually repeats but may differ in a detail not shown here. Equal entries are not always repeated.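 Cells were grown in 96-well plates and exposed to each compound for 48 hours at five concentrations; endpoints were interpolated linearly between bracketing concentrations, or set to the highest concentration if not reached. Abbreviation: GI50, concentration required for 50% inhibition of growth. TGI denotes the concentration required for complete inhibition of growth.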 Bounds are passed on as bounds.

What all share (assay): NCI-60 cell line screen, 48 h
Test [1] relates to EKVX NSCLC.
Test [2] relates to OVCAR-4 ovarian.
The test system of test [3] is HCT-15 colon.
For test [4], the system named is SK-MEL-28 melanoma.
Test [5] has as its system OVCAR-5 ovarian.
For test [6], the system named is MCF7 breast.
Test [7] relates to SF-268 CNS.
Test [8] has as its system SK-OV-3 ovarian.
Test [9] concerns OVCAR-3 ovarian.
Test [10] has as its system SW-620 colon.

Consider `CCOc1cc2c(cc1O)/C(=N\N)C[C@@H]1[C@@H]2CC[C@]2(C)[C@@H](O)CC[C@@H]12`, for which the TGI in test [1] was above 100 µM; in test [2] it was above 100 µM; in test [3], 16.8 µM; in test [4] it was 34.2 µM; in test [5] it was above 86 µM; in test [6] it was above 100 µM. Moreover, the TGI in test [7] was above 44.9 µM; in [8], above 100 µM; in test [9] it was 12.4 µM; in [10] it was 17.8 µM.
For `c1ccc(C2=NC3(CCCCC3)N(c3nc4ccccc4s3)N2)nc1`, the TGI in test [1], in test [2], in test [3], in [4], in [5] and in test [6] was above 100 µM in each case. Also, the TGI in test [7] was above 100 µM; in [8], above 100 µM; in test [9] it was 51.2 µM; in test [10], above 100 µM.
On to `CCC(C)[C@@H](NCc1ccccc1)[C@H](OCc1ccccc1)[C@@H]1COC(C)(C)O1` (stereo not given in full), for which the TGI in [1] is 42.7 µM; in test [2], above 100 µM; in test [3] it was 31.6 µM; in [4], 71.4 µM; in test [5], 90.8 µM; in test [6] it was 44.4 µM. Besides, the TGI in test [7] is 68.6 µM; in test [8], above 100 µM; in test [9], above 100 µM; in test [10], 48.5 µM.
Turning to `O=c1c2ccccc2oc2nc3n(c(=O)c12)CCCS3`, the TGI in test [1], in [2], in test [3], in test [4], in [5] and in [6] was above 100 µM throughout. For the same compound, the TGI in test [7], in [8], in test [9] and in test [10] was above 100 µM throughout.
For the compound `C=CCNC(=S)Nc1sc2c(c1C(=O)OCC)CC(C)CC2` (stereo not given), the TGI is 65.9 µM in test [1]; above 100 µM in test [2]; above 100 µM in [3]; above 100 µM in test [4]; 76 µM in test [5]; 45.4 µM in test [6]. Besides, the TGI in [7] is above 100 µM; in [8], 69.4 µM; in test [9] it was 50.1 µM; in test [10], above 100 µM.
Take `O=C(Cc1ccccc1)NCCc1ccc(O)c(O)c1`: the TGI in test [1] is above 100 µM; in test [2], 28 µM; in test [3], above 100 µM; in test [4], above 100 µM; in test [5] it was above 100 µM; in test [6] it was above 100 µM. For the same compound, the TGI in [7], in test [8], in test [9] and in test [10] was above 100 µM in each case.
As for `CC1=NN(c2nc(N)nc(-c3ccccc3S(N)(=O)=O)n2)C(C)(C)C1`, the TGI in [1], in [2], in test [3], in test [4], in test [5] and in [6] was above 100 µM in each case. Moreover, the TGI in [7], in test [8], in test [9] and in [10] was above 100 µM throughout.
`OCC1OC(c2scc3c(=S)nc[nH]c23)C(O)C1O` (stereo not given): the TGI is above 100 µM in test [1]; 38.1 µM in test [2]; above 95.6 µM in test [3]; above 100 µM in [4]; above 100 µM in [5]; 27.3 µM in test [6]. In addition, the TGI is above 100 µM in [7], 35.4 µM in [8], 8.33 µM in test [9] and above 93.1 µM in test [10].
Take `Cc1[nH]c2ncn(/N=C/c3ccccc3O)c(=N)c2c1Cc1ccccc1`: the TGI in test [1], in test [2], in test [3], in test [4], in [5] and in test [6] was above 100 µM throughout. The TGI was above 100 µM in [7], above 100 µM in [8], 71.8 µM in test [9] and above 100 µM in [10].
As to `COC(=O)N1CC2(CO)C3CC=C(C(=O)Nc4ccccc4Br)C2C1C3Br` (stereo not given), the TGI in test [1], in [2], in [3], in test [4], in test [5] and in test [6] was above 50 µM throughout. Moreover, the TGI in test [7], in test [8], in test [9] and in [10] was above 50 µM throughout.
For `c1ccc(CNC2CC(NCc3ccccn3)CC(NCc3ccccn3)C2)nc1` (stereo not given), the GI50 in [1] was 3.87 µM and 7.93 µM and 3.88 µM; in test [4], 7.71 µM; in test [5], 3.66 µM and 14.4 µM and 2.89 µM; in [6], 1.89 µM; in [9], 4.59 µM. Moreover, the TGI in test [1] was 14.7 µM and 25 µM and 16.6 µM; in test [2], 9.26 µM and 8.37 µM and 40.9 µM; in test [3], > 75.2 µM and 25 µM and > 100 µM; in test [4], 18.5 µM and 13.3 µM and 26.4 µM; in [5], 14.4 µM and 25 µM and 8.94 µM; in test [6], 6.31 µM and 8.62 µM and 3.65 µM. Further, the TGI in test [7] was 15.7 µM and 13.3 µM and 16.3 µM; in [8], 7.86 µM and 8.7 µM and 7.17 µM; in test [9] it was 9.72 µM and 12.1 µM and 15.9 µM; in test [10], 41.7 µM and 25 µM and 32.9 µM.
On to `CC1=NN(C(=O)CSc2nnc(SCC(=O)N3N=C(C)CC3(O)c3ccccc3)s2)C(O)(c2ccccc2)C1` (stereo not given), for which the TGI in test [1], in test [2], in [3], in test [4], in test [5] and in [6] was above 100 µM throughout. For the same compound, the TGI was 47.2 µM in [7], above 100 µM in test [8], above 100 µM in [9] and above 100 µM in test [10].
Regarding `Cc1ccc(C)n1-c1ccccc1C1SCCCS1`, the TGI in test [1], in [2], in test [3], in [4], in [5] and in test [6] was above 100 µM throughout. Besides, the TGI in test [7], in [8], in test [9] and in test [10] was above 100 µM in each case.
Take `Cc1c2cc[nH]c(C(F)(F)F)c2cc2c1nc1ccccc12`: the TGI in [1], in test [2], in test [3], in test [4], in test [5] and in test [6] was above 125 µM each time. For the same compound, the TGI in test [7], in [8], in [9] and in [10] was above 125 µM throughout.
As to `C=CCC1(O)c2ccccc2C(=O)c2c(O)ccc(O)c21` (stereo not given), the TGI was 57 µM in test [1]; above 82.5 µM in test [2]; above 75.7 µM in [3]; above 100 µM in test [4]; 60.4 µM in [5]; 26.3 µM in test [6]. In addition, the TGI was 56.9 µM in [7], 40.7 µM in test [8], above 57.6 µM in test [9] and above 100 µM in [10].
Take `C1CC2=C(C1)[Se]C(=C1Sc3nsnc3S1)[Se]2`: the TGI in test [1], in test [2], in [3], in test [4], in [5] and in [6] was above 100 µM each time. In addition, the TGI in [7], in [8], in test [9] and in test [10] was above 100 µM in each case.
In the case of `Clc1ccc2c(SCC3CO3)c3ccccc3nc2c1` (stereo not given), the TGI came out at 20.4 µM in test [1]; 21.1 µM in test [2]; 3.34 µM in [3]; 21.1 µM in test [4]; 10.4 µM in test [5]; 3.19 µM in [6]. The TGI is above 100 µM in [7], 53.4 µM in [8], 3.27 µM in [9] and 5.24 µM in test [10].
With `O=C1c2c(F)c(F)c(F)c(F)c2SC2=NCCN12`, the TGI worked out at 41.4 µM in test [1]; 8.91 µM in [2]; 7.56 µM in test [3]; 22.8 µM in [4]; 29.2 µM in test [5]; 23.5 µM in test [6]. The TGI in test [7] was determined as 28.2 µM; in test [8], 28.7 µM; in test [9], 9.21 µM; in test [10], 6.29 µM.
With `O=C1Oc2ccccc2C(=O)/C1=C/N1C(=O)N/C(=C\c2ccccc2O)C1=O`, the TGI in [1], in test [2], in test [3], in [4], in test [5] and in test [6] was above 100 µM in each case. The TGI in test [7], in test [8], in test [9] and in [10] was above 100 µM in each case.
In the case of `O=C1c2ccccc2C2CNC1(O)c1ccccc12` (stereo not given), the TGI in test [1], in [2], in test [3], in test [4], in test [5] and in [6] was above 100 µM each time. For the same compound, the TGI in test [7], in test [8], in test [9] and in test [10] was above 100 µM throughout.
